# Assay results from patent US4933369A, “Dimethyl tyrosyl amide sulfides, sulfoxides and sulfones” (G. D. Searle & Co., priority 1988, dated 1990).
# Key:
# [1] = biological target: opiate receptors isolated from rat brain; assay: Opiate binding assay (displacement of 3H-Naloxone); details: 3H-Naloxone 1NM, rat brain membranes, pH 7.4, 25° C., 60 min
# Procedure: (§1) The test compounds were evaluated for their ability to displace the binding of ^3 H-Naloxone to opiate receptors isolated from rat brain. Male rats (Crl:CD)(SD)(BR) obtained from Charles River Laboratories (Portage, Mich.) were sacrificed by cervical dislocation. A purified homogenate of receptor membranes was prepared from the brains according to the method described by Chang and Cuatrecasas. Multiple Opiate Receptors: Enkephalins and Morphine Bind to Receptors of Different Specificity. J. Biol. Chem. 254, 2610-2618 (1979). The brains were homogenized in ten volumes of 0.32 M sucrose and centrifuged twice at 6,000×g for fifteen minutes. Following centrifugation of the supernatants at 40,000×g for thirty minutes, the pellets were resuspended in 5 mM tris HCl, and centrifuged at 6,000×g. The supernatant was centrifuged at 40,000×g. The resuspension in 5 mM tris and centrifugation was repeated twice. The final pellet was resuspended in two volumes of 50 mM tris HCl, (pH 7.4). The homogenate was assayed for protein content according to the method of Itzhaki and Gill (R. E. Itzhaki and D. N. Gill. A Micro-Biuret Method for Estimating proteins Anal. Biochem. 9, 401-410, 1964).
# The binding of the test compounds to the receptor membrane preparation was measured using a modification of the method of Pert and Snyder (C. B. Pert and S. H. Snyder. Property of Opiate-Receptor Binding in Rat Brain. Proc. Natl. Acad. Sci. 70, 2243-2247, 1973). The receptor assay was run using a final concentration of 1NM^3 H-Naloxone and 0.5 mg/ml of homogenate protein. Levorphanol (1×10^-5 M) was used as the displacer for non-specific binding. The final concentration of the test compounds was 10^-5 M) The assay was run in 0.05 M tris HCl (pH 7.4). Total assayed volume was 1.0 ml.
# (§2) Samples were incubated at 25° C. for sixty minutes, filtered over Whatman GF/C glass fiber filters and rinsed twice with 2.4 ml washes of ice-cold buffer. The filters were air dried at 50° C. for thirty minutes. After drying, 10 ml of PCS was added to the vial and radioactivity determined using a Tracore Analytic Mark III liquid scintillation counter with a counting efficiency of 48%.
# The IC50 values, the concentration of the test compounds which inhibited ^3 H-Naloxone specific binding to the opiate receptor by 50%, were obtained from log-logit plots of concentration-response curves.
# mouse = assay: Writhing assay (phenylbenzoquinone-induced writhing, analgesia); format: in vivo, Male Charles River albino mice (CD-1/HAM/lLR); parameters: key: +: The test compound was rated active if the number of writhes in the drug treatment group was significantly less than the number of writhes in the saline treatment group as determined by a one-way analysis of variance; details: 30 min before phenylbenzoquinone, initial test dose 2 mg/kg
# Procedure: Male Charles River albino mice (CD-1/HAM/lLR) weighing between 20 and 30 grams were used. Thirty minutes after subcutaneous or intragastric administration of the test compound (0.1 ml/10 gm body weight), 0.025% (w/x) phenylbenzoquinone was injected intraperitoneally (0.1 ml/10 gm body weight). Five minutes later, each mouse was placed in a large glass beaker and the number of writhes that occurred in the subsequent ten minutes is counted. A writhe consisted of dorsoflexion of the back, extension of the hind limbs and strong contraction of the abdominal musculature. The test compound was considered to have produced analgesia in a mouse if the number of writhes elicited by phenylbenzoguinone was equal to or less than 1/2 the median number of writhes recorded for the saline-treated group that day. The results were expressed as the number of mice (out of a possible 10) in which the test compound produced analgesia. […] If the initial test dose of 2 mg/kg inhibited writhing in greater than six out of ten mice, the effect of additional doses was evaluated and an ED50 value was calculated using a maximum likelihood function.
# [2] = biological target: T1, opiate receptors isolated from rat brain (Rattus norvegicus, UniProt P33535); assay: Opiate binding assay with (D)Ala^2Glyol^5 Enkephlin as radioactive ligand
# T1 construct: A purified homogenate of receptor membranes was prepared from the brains; from tissue; host or cells: brain membranes of male Crl:CD(SD)BR rats (animals from Charles River Laboratories)
# T1 sequence (P33535 whole entry): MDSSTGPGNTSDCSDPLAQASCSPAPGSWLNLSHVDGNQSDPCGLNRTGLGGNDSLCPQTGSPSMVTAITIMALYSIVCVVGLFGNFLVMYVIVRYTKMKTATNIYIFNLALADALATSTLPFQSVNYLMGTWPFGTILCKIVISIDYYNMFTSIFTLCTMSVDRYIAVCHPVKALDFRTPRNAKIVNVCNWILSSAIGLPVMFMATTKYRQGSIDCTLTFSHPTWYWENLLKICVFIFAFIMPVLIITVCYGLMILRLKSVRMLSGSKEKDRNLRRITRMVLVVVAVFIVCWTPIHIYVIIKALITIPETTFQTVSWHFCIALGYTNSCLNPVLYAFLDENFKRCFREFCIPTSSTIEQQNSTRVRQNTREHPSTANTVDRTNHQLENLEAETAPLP
# Procedure: as §1, with “Male” for “The test compounds were evaluated for their ability to displace the binding of ^3 H-Naloxone to opiate receptors isolated from rat brain. Male”, “The final pellet was resuspended in two volumes of 50 mM tris HCl, (pH 7.4). The homogenate was assayed for protein content according to the method of Itzhaki and Gill (R. E. Itzhaki and D. N. Gill. A Micro-Biuret Method for Estimating proteins Anal. Biochem. 9, 401-410, 1964).” left out
# The binding of the test compounds to the receptor membrane preparation was measured using a modification of the method of Pert and Snyder (C. B. Pert and S. H. Snyder. Property of Opiate-Receptor Binding in Rat Brain. Proc. Natl. Acad. Sci. 70, 2243-2247, 1973). […]
# as §2, with “The filters were air dried at 50° C. for thirty minutes.” left out, “48%. […]” for “48%.”
Structure (SMILES),IC50 [1],"ACTIVE (writhing assay, subcutaneous dosing) (mouse)",IC50 [2]
"Cc1cc(O)cc(C)c1CC(N)C(=O)NCCSCCCc1ccccc1 (racemic) [Example 2, (±)α-amino-4-hydroxy-2,6-dimethyl-N-[2-[(3-phenylpropyl)thio]ethyl]benzenepropanamide]",2.2 nM,,
"Cc1cc(O)cc(C)c1CC(N)C(=O)NCCS(=O)(=O)CCCc1ccccc1 (racemic) [Example 3, (±)α-amino-4-hydroxy-2,6-dimethyl-N-[2-[(3-phenylpropyl)sulfonyl]ethyl]benzenepropanamide]",0.8 nM,+,
"Cc1cc(O)cc(C)c1CC(N)C(=O)NCC[S+]([O-])CCCc1ccccc1 (racemic) [Example 4, (±)α-amino-4-hydroxy-2,6-dimethyl-N-[2-[(3-phenylpropyl)sulfinyl]ethyl]benzenepropanamide]",2.8 nM,+,
"Cc1cc(O)cc(C)c1CC(N)C(=O)NCCCSCCc1ccccc1 (racemic) [Example 5, (±) α-2,6-dimethyl-N-[3-[(2-phenylethyl)thio]propyl]benzenepropanamide]",,+,3.6 nM
"Cc1cc(O)cc(C)c1CC(N)C(=O)NCCCS(=O)(=O)CCc1ccccc1 (racemic) [Example 6, (±)α-amino-4-hydroxy-2,6-dimethyl-N-[3-[(2-phenylethyl)sulfonyl]-propyl]benzenepropanamide]",0.9 nM,,
"Cc1cc(O)cc(C)c1CC(N)C(=O)NCCCSCc1ccccc1 (racemic) [Example 7, (±)α-amino-4-hydroxy-2,6-dimethyl-N-[3-[(phenylmethyl)thio]propyl]benzenepropanamide]",21 nM,+,
"Cc1cc(O)cc(C)c1CC(N)C(=O)NCCCCSCc1ccccc1 (racemic) [Example 8, (±)α-amino-4-hydroxy-2,6-dimethyl-N-[4-(phenylmethyl)thio]butyl]benzenepropanamide]",,+,
"Cc1cc(O)cc(C)c1C[C@H](N)C(=O)NCCCSc1ccccc1 [Example 9, (L)α-amino-4-hydroxy-2,6-dimethyl-N-[3-(phenylthio)propyl]benzenepropanamide]",,,20.9 nM
